Tested on: 596521-263-R-J1-PDC complex spheroids, viability % of control
Assay: Anticancer human tumor 596521-263-R-J1-PDC patient-derived soft tissue sarcoma cell line growth inhibition [GQUAD]
Conditions: for IC50: curve of first compound; for viability, T/C: stronger effect = lower value
Summary of the method: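 Tumor cells were grown as complex spheroids with HUVEC endothelial cells and mesenchymal stem cells as stroma. G-quadruplex stabilizers were combined with targeted agents over half-log dilutions from near the clinical Cmax, or from 10 microM.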

[1] = second compound 0.0316 µM, first compound 0.0316 µM
[2] = second compound 0.0316 µM, first compound 0.316 µM
[3] = second compound 0.1 µM, first compound 0.0316 µM
[4] = second compound 0.1 µM, first compound 0.316 µM
[5] = second compound 0.316 µM, first compound 0.0316 µM
[6] = second compound 0.316 µM, first compound 0.316 µM
[7] = second compound 1 µM, first compound 0.0316 µM
[8] = second compound 1 µM, first compound 0.316 µM
[9] = second compound 3.16 µM, first compound 0.0316 µM
[10] = second compound 3.16 µM, first compound 0.316 µM
[11] = second compound 10 µM, first compound 0.0316 µM
[12] = second compound 10 µM, first compound 0.316 µM
[13] = second compound 0.0316 µM, first compound 0.000999 µM
[14] = second compound 0.0316 µM, first compound 0.00316 µM
[15] = second compound 0.0316 µM, first compound 0.00999 µM
[16] = second compound 0.0316 µM, first compound 0.0999 µM
[17] = second compound 0.1 µM, first compound 0.000999 µM
[18] = second compound 0.1 µM, first compound 0.00316 µM
[19] = second compound 0.1 µM, first compound 0.00999 µM
[20] = second compound 0.1 µM, first compound 0.0999 µM
[21] = second compound 0.316 µM, first compound 0.000999 µM
[22] = second compound 0.316 µM, first compound 0.00316 µM
[23] = second compound 0.316 µM, first compound 0.00999 µM
[24] = second compound 0.316 µM, first compound 0.0999 µM
[25] = second compound 1 µM, first compound 0.000999 µM
[26] = second compound 1 µM, first compound 0.00316 µM
[27] = second compound 1 µM, first compound 0.00999 µM
[28] = second compound 1 µM, first compound 0.0999 µM
[29] = second compound 3.16 µM, first compound 0.000999 µM
[30] = second compound 3.16 µM, first compound 0.00316 µM
[31] = second compound 3.16 µM, first compound 0.00999 µM
[32] = second compound 3.16 µM, first compound 0.0999 µM
[33] = second compound 10 µM, first compound 0.000999 µM
[34] = second compound 10 µM, first compound 0.00316 µM
[35] = second compound 10 µM, first compound 0.00999 µM
[36] = second compound 10 µM, first compound 0.0999 µM
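Further: spheroids exposed to drugs for 7 days before viability reading.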
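Wherever viability, T/C is given: 100% = DMSO vehicle control viability.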

`C=CC(=O)N1CCN(c2nc(=O)n(-c3c(C)ccnc3C(C)C)c3nc(-c4c(O)cccc4F)c(F)cc23)C(C)C1` (stereo unspecified) + Cc1cnc(CNC(=O)c2c(=O)c3ccc(N4CCCN(C)CC4)nc3n3c2sc2ccccc23)cn1 showed an IC50 (second compound 0.0316 µM) greater than 10000 nM, an IC50 (second compound 0.1 µM) greater than 10000 nM and an IC50 (second compound 0.316 µM) greater than 10000 nM. It also gave an IC50 (second compound 1 µM) greater than 10000 nM, an IC50 (second compound 3.16 µM) greater than 10000 nM and an IC50 (second compound 10 µM) of less than 31.6 nM. The viability, T/C [1] was 104%, the viability, T/C (second compound 0.0316 µM, first compound 0.1 µM) was 101% and the viability, T/C [2] was 103%. It also gave a viability, T/C (second compound 0.0316 µM, first compound 1 µM) of 112%, a viability, T/C (second compound 0.0316 µM, first compound 3.16 µM) of 108% and a viability, T/C (second compound 0.0316 µM, first compound 10 µM) of 75.8%. The viability, T/C [3] was 88.3%, the viability, T/C (second compound 0.1 µM, first compound 0.1 µM) was 86.1% and the viability, T/C [4] was 91.8%. It also gave a viability, T/C (second compound 0.1 µM, first compound 1 µM) of 107%, a viability, T/C (second compound 0.1 µM, first compound 3.16 µM) of 103% and a viability, T/C (second compound 0.1 µM, first compound 10 µM) of 77.6%. It also gave a viability, T/C [5] of 89.5%, a viability, T/C (second compound 0.316 µM, first compound 0.1 µM) of 85.1% and a viability, T/C [6] of 90.5%. The viability, T/C (second compound 0.316 µM, first compound 1 µM) was 81.1%, the viability, T/C (second compound 0.316 µM, first compound 3.16 µM) was 92.4% and the viability, T/C (second compound 0.316 µM, first compound 10 µM) was 69.1%. For the same compound, the viability, T/C [7] was 67.8%, the viability, T/C (second compound 1 µM, first compound 0.1 µM) was 64.8% and the viability, T/C [8] was 67%. For the same compound, the viability, T/C (second compound 1 µM, first compound 1 µM) was 71.2%, the viability, T/C (second compound 1 µM, first compound 3.16 µM) was 76.7% and the viability, T/C (second compound 1 µM, first compound 10 µM) was 63.2%. It also gave a viability, T/C [9] of 57.2%, a viability, T/C (second compound 3.16 µM, first compound 0.1 µM) of 56.5% and a viability, T/C [10] of 61.8%. The viability, T/C (second compound 3.16 µM, first compound 1 µM) was 60%, the viability, T/C (second compound 3.16 µM, first compound 3.16 µM) was 81.4% and the viability, T/C (second compound 3.16 µM, first compound 10 µM) was 61.8%. For the same compound, the viability, T/C [11] was 51.1%, the viability, T/C (second compound 10 µM, first compound 0.1 µM) was 30.9% and the viability, T/C [12] was 48.6%. For the same compound, the viability, T/C (second compound 10 µM, first compound 1 µM) was 51%, the viability, T/C (second compound 10 µM, first compound 3.16 µM) was 63.7% and the viability, T/C (second compound 10 µM, first compound 10 µM) was 39.5%.
`CC[C@@]1(O)C(=O)OCc2c1cc1n(c2=O)Cc2cc3c(CN(C)C)c(O)ccc3nc2-1` + Cc1cnc(CNC(=O)c2c(=O)c3ccc(N4CCCN(C)CC4)nc3n3c2sc2ccccc23)cn1 showed an IC50 (second compound 0.0316 µM) greater than 316 nM, an IC50 (second compound 0.1 µM) greater than 316 nM and an IC50 (second compound 0.316 µM) greater than 316 nM. The IC50 (second compound 1 µM) was greater than 316 nM, the IC50 (second compound 3.16 µM) was greater than 316 nM and the IC50 (second compound 10 µM) was less than 0.999 nM. The viability, T/C [13] was 107%, the viability, T/C [14] was 102% and the viability, T/C [15] was 78.7%. For the same compound, the viability, T/C [1] was 66.5%, the viability, T/C [16] was 60.1% and the viability, T/C [2] was 60.1%. For the same compound, the viability, T/C [17] was 88.9%, the viability, T/C [18] was 85% and the viability, T/C [19] was 76.5%. For the same compound, the viability, T/C [3] was 69.3%, the viability, T/C [20] was 57.2% and the viability, T/C [4] was 50.9%. It also gave a viability, T/C [21] of 90.1%, a viability, T/C [22] of 86.7% and a viability, T/C [23] of 78.3%. The viability, T/C [5] was 63%, the viability, T/C [24] was 67.1% and the viability, T/C [6] was 65.7%. For the same compound, the viability, T/C [25] was 70.8%, the viability, T/C [26] was 60.2% and the viability, T/C [27] was 60.4%. It also gave a viability, T/C [7] of 63.2%, a viability, T/C [28] of 59.3% and a viability, T/C [8] of 55.8%. For the same compound, the viability, T/C [29] was 54.3%, the viability, T/C [30] was 60.7% and the viability, T/C [31] was 51.5%. For the same compound, the viability, T/C [9] was 54.4%, the viability, T/C [32] was 58% and the viability, T/C [10] was 56.2%. It also gave a viability, T/C [33] of 46.5%, a viability, T/C [34] of 47.1% and a viability, T/C [35] of 49.7%. For the same compound, the viability, T/C [11] was 43.7%, the viability, T/C [36] was 49.4% and the viability, T/C [12] was 49%.
Compound `CCc1c2c(nc3ccc(O)cc13)-c1cc3c(c(=O)n1C2)COC(=O)[C@]3(O)CC` + Cc1cnc(CNC(=O)c2c(=O)c3ccc(N4CCCN(C)CC4)nc3n3c2sc2ccccc23)cn1 has an IC50 (second compound 0.0316 µM) of 8.62 nM, an IC50 (second compound 0.1 µM) of 8.15 nM and an IC50 (second compound 0.316 µM) of 9.24 nM. The IC50 (second compound 1 µM) was 13.2 nM, the IC50 (second compound 3.16 µM) was 6.43 nM and the IC50 (second compound 10 µM) was less than 0.999 nM. The viability, T/C [13] was 57.6%, the viability, T/C [14] was 59.2% and the viability, T/C [15] was 44.3%. For the same compound, the viability, T/C [1] was 40%, the viability, T/C [16] was 17.4% and the viability, T/C [2] was 7.92%. The viability, T/C [17] was 58.6%, the viability, T/C [18] was 56.8% and the viability, T/C [19] was 49.3%. It also gave a viability, T/C [3] of 34.1%, a viability, T/C [20] of 21.3% and a viability, T/C [4] of 8.98%. For the same compound, the viability, T/C [21] was 71.6%, the viability, T/C [22] was 55.4% and the viability, T/C [23] was 49.9%. It also gave a viability, T/C [5] of 40.5%, a viability, T/C [24] of 21.2% and a viability, T/C [6] of 7.27%. For the same compound, the viability, T/C [25] was 63.8%, the viability, T/C [26] was 61.7% and the viability, T/C [27] was 52.6%. The viability, T/C [7] was 40.1%, the viability, T/C [28] was 24.1% and the viability, T/C [8] was 6.45%. It also gave a viability, T/C [29] of 55.8%, a viability, T/C [30] of 55% and a viability, T/C [31] of 47.6%. For the same compound, the viability, T/C [9] was 37.3%, the viability, T/C [32] was 23.2% and the viability, T/C [10] was 0.26%. For the same compound, the viability, T/C [33] was 47.2%, the viability, T/C [34] was 37.1% and the viability, T/C [35] was 39.6%. It also gave a viability, T/C [11] of 32.5%, a viability, T/C [36] of 4.57% and a viability, T/C [12] of 0.24%.

From PubChem BioAssay AID2060500 (Molecular Pharmacology Branch, DTP, NCI, 2025)
